Source: patent publication US20100311756A1, “METHODS FOR DELAYING THE PROGRESSION OF AT LEAST ONE OF CARDIAC HYPERTROPHY, CARDIAC REMODELING OR LEFT VENTRICULAR FUNCTION OR THE ONSET OF HEART FAILURE IN SUBJECTS IN NEED OF TREATMENT THEREOF” (TAKEDA PHARMACEUTICALS NORTH AMERICA, INC., priority 2009, published 2010)
Marks after values point to notes of the source that are not given here.

Legend:
[1] = tested on: mice subjected to TAC or sham surgery; assay: TAC or sham surgery in mice, Protocol 2: febuxostat or allopurinol for three weeks beginning seven days after TAC; assay type: in vivo; conditions: for Anterior wall thickness at end-diastole / Anterior wall thickness at end-systole / LV ejection fraction / Lung weight / Lung/body weight / Posterior wall thickness at end-diastole / Posterior wall thickness at end-systole / Ventricle weight / Ventricle/body weight / LV fractional shortening / LV end-diastolic diameter / LV end-systolic diameter: drinking water (FBS 0.05 mg/ml, allopurinol 0.15 mg/ml) three weeks from day 7; for Survival rate: over the three-week treatment period; for TAC-induced ventricular fibrosis: histological staining
From the text: • Mice. Male C57/BL6 mice at 8-9 weeks of age were purchased from Jackson Laboratories (Bar Harbor, Me.) for use in this study. Mice were housed in an air-conditioned room with a 12-hour:12-hour light-dark cycle, received standard mouse chow, and drank tap water. This study was approved by the Institutional Animal Care and Use Committee of the University of Minnesota. • Experimental Protocol 1. This protocol was designed to determine whether febuxostat (2-[3-cyano-4-(2-methylpropoxy)phenyl]-4-methylthiazole-5-carboxylic acid) treatment, beginning immediately after the onset of acute pressure overload, could protect against transverse aortic constriction (TAC)-induced left ventricular (LV) hypertrophy, dysfunction and mortality. Three treatment groups were included (See Table 1, below): sham-operated mice (n=20), TAC mice treated with vehicle (0.5% methylcellulose) (n=30), and TAC mice treated with febuxostat (suspension in 0.5% methylcellulose) (n=30). To generate LV hypertrophy in a short time period with a significant incidence of cardiac mortality, TAC was created by ligating the transverse aorta against a 27 G needle to create severe LV pressure overload. Since mice tend to take in less water and food during the first 1-3 days after the TAC procedure, febuxostat (5 mg/kg/day in 250 μl vehicle) or vehicle (250 μl) was administered daily by oral gavage for a total of 8 days, with the first dose administered on the day of the surgery after the animal awoke from anesthesia (˜60 min after the TAC procedure). On the eighth day, LV function was assessed by echocardiography approximately 1 hour after the last febuxostat or vehicle dose. Approximately 3 hours after echocardiographic evaluation (4 hours after the last febuxostat or vehicle dose), the mice were weighed and blood samples collected. The animals were euthanized and the heart and lungs excised; the right and left atria were trimmed away, and the ventricles and lungs were weighed. Tissue from the left ventricle was used for histological evaluation and Western blots. • Experimental Protocol 2. This protocol was designed to determine whether administration of febuxostat (FBS) or allopurinol (AL) beginning after the onset of cardiac hypertrophy, LV dysfunction and heart failure could exert a protective effect. For this protocol, mice subjected to TAC (using a 26 gauge (G) needle to generate moderate TAC) or sham surgery were divided into six experimental groups as described in Table 1, below. Beginning seven days after TAC, animals were treated with vehicle (0.01 mg/ml NaCl, equivalent salt content as in the FBS drinking water), FBS (0.05 mg/ml) or AL (0.15 mg/ml) in drinking water for three weeks. Following three weeks of treatment, ventricular function was assessed by echocardiography. Blood samples and cardiac tissue were collected during 2-3 hours after the echocardiographic evaluation as described previously in Protocol 1.
• Minimally Invasive TAC Procedure. TAC was performed using the minimally invasive suprasternal approach described by Hu et al. (See, Hu et al., Am. J. Physiol. Heart Circ. Physiol., 3:H1261-9 (2003)). Mice were anesthetized with a mixture of 80 mg/kg ketamine and 30 mg/kg xylazine intraperitoneally. A horizontal incision was made at the level of the suprasternal notch to allow direct visualization of the transverse aorta without entering the pleural space. With the aid of a dissecting microscope, aortic constriction was performed by ligating the aorta between the right innominate artery and the left carotid artery over a 27 G) needle using 5-0 silk suture. The needle was immediately removed after ligation, leaving the aortic constriction in place. The incision was closed and the animals were allowed to recover. Analgesia was provided before the mice awoke from anesthesia. Sham surgery utilized the same procedure but without aortic ligation. • Echocardiography.

[2] = Schumacher, Expert Opin. Invest. Drugs 2005; cited from earlier work
[3] = sham-operated mice, three-week treatment
[4] = sham-operated mice, three-week treatment, versus vehicle

SMILES	Anterior wall thickness at end-diastole ([1]; TAC mice)	Anterior wall thickness at end-systole ([1]; TAC mice)	LV ejection fraction ([1]; TAC mice)	Lung weight ([1]; TAC mice) [mg]	Lung/body weight ([1]; TAC mice) [mg/g]	Posterior wall thickness at end-diastole ([1]; TAC mice)	Posterior wall thickness at end-systole ([1]; TAC mice)	Ventricle weight ([1]; TAC mice)	Ventricle/body weight ([1]; TAC mice)	Survival rate ([1]; TAC mice) [%]	Plasma uric acid ([1]; TAC mice, three-week treatment)	TAC-induced ventricular fibrosis ([1]; TAC mice, three-week treatment)	Anterior wall thickness at end-diastole ([1]; sham mice) [mm]	Anterior wall thickness at end-systole ([1]; sham mice) [mm]	LV ejection fraction ([1]; sham mice)	LV fractional shortening ([1]; sham mice)	Lung/body weight ([1]; sham mice) [mg/g]	Posterior wall thickness at end-diastole ([1]; sham mice) [mm]	Posterior wall thickness at end-systole ([1]; sham mice)	Ventricle/body weight ([1]; sham mice) [mg/g]	other results
Cc1nc(-c2ccc(OCC(C)C)c(C#N)c2)sc1C(=O)O [febuxostat, 2-[3-cyano-4-(2-methylpropoxy)phenyl]-4-methylthiazole-5-carboxylic acid]	0.85 ± 0.02^a mm	1.19 ± 0.02^a mm	63.9 ± 1.9^a %	170 ± 17	6.59 ± 0.64	0.84 ± 0.02^a mm	1.18 ± 0.02^a mm	158 ± 6^a mg	6.11 ± 0.21^a mg/g	96	decreased	not affected	0.72 ± 0.02	1.18 ± 0.04	85.5 ± 1.6^a %	48.3 ± 2.2^a %	5.42 ± 0.11	0.72 ± 0.02	1.18 ± 0.04^a mm	3.94 ± 0.07	LV end-diastolic wall thickness ([1]; TAC mice, three-week treatment): unchanged; TAC-induced cardiac myocyte hypertrophy ([1]; TAC mice, three-week treatment): no effect; Improvement (increase) of LV ejection fraction ([1]; TAC mice, three-week treatment, versus vehicle): ~10%; End-diastolic wall thickness [1, 3]: did not change; Plasma uric acid [1, 3]: significantly decreased; Increase in LV ejection fraction [1, 4]: ~9%; Increase in LV fractional shortening [1, 4]: ~15%; Route of elimination [2]: hepatic metabolism
Oc1ncnc2[nH]ncc12 [allopurinol]	0.87 ± 0.02^a mm	1.20 ± 0.03^a mm	60.2 ± 2.2^a %	166 ± 16	6.98 ± 0.94	0.88 ± 0.02^a mm	1.20 ± 0.03^a mm	153 ± 6^a mg	6.27 ± 0.36^a mg/g	76	decreased	not affected	0.74 ± 0.01	1.11 ± 0.04	77.7 ± 2.1%	40.1 ± 2.0%	5.40 ± 0.14	0.74 ± 0.01	1.11 ± 0.03 mm	4.13 ± 0.12	LV end-diastolic diameter ([1]; TAC mice): 4.21 ± 0.08^a mm; LV end-systolic diameter ([1]; TAC mice): 3.09 ± 0.10^a mm; LV fractional shortening ([1]; TAC mice): 26.8 ± 1.4^a %; Lung/body weight ([1]; TAC mice, listed as AL): no significant effect; Ventricle/body weight ([1]; TAC mice, listed as AL): no significant effect; LV function and dimensions (echocardiography) ([1]; TAC mice, three-week treatment, versus vehicle-treated TAC mice): no effect; LV end-diastolic diameter ([1]; sham mice): 3.71 ± 0.06 mm; LV end-systolic diameter ([1]; sham mice): 2.22 ± 0.07 mm; Lung weight ([1]; sham mice): 131 ± 3 mg; Ventricle weight ([1]; sham mice): 100 ± 3 mg; Lung weight ([1]; sham mice, listed as AL): no significant effects; Lung/body weight ([1]; sham mice, listed as AL): no significant effects; Ventricle weight ([1]; sham mice, listed as AL): no significant effects; Ventricle/body weight ([1]; sham mice, listed as AL): no significant effects; LV function and dimensions (any of the parameters evaluated by echocardiography) [1, 3]: no effect; Plasma uric acid [1, 3]: significantly decreased; Route of elimination [2]: mainly cleared by the kidneys
